According to US8492550B2, “Hydroxyalkanyl amides as modulators of chemokine receptor activity” (Bristol-Myers Squibb Company, priority 2008, dated 2013):

Biological target: T1, CCR1 (Homo sapiens, UniProt P32246)
T1 construct: the THP-1 cell line, which expresses the endogenous CCR1 receptor; endogenous in cells; host or cells: THP-1 (human monocytic cell line); human PBMC or human monocytes are named as alternatives
T1 sequence (P32246 1-355): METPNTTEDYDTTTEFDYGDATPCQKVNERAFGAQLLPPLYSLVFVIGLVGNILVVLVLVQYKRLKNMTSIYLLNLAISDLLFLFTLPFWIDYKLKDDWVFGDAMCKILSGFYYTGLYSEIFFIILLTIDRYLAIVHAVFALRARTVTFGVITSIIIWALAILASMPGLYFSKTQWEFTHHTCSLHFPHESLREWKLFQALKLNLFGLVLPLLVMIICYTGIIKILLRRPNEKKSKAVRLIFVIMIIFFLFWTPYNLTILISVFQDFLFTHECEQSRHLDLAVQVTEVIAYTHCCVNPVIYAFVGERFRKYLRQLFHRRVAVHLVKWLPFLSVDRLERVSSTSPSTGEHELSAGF
Experiment: Antagonism of 125I-MIP-1α binding to human THP-1 cells (CCR1 binding)
Details: THP-1 cells expressing endogenous CCR1; 50 pM 125I-labeled human MIP-1α; room temperature, thirty minutes; read-out: CCR1 Binding Ki (n = 1 unless otherwise noted)
Protocol: Antagonism of MIP-1α Binding to Human THP-1 Cells
Compounds of the present invention have activity in the antagonism of MIP-1α binding to human THP-1 cells described here.
Millipore filter plates (#MABVN1250) are treated with 100 μl of binding buffer (0.5% bovine serum albumin, 20 mM HEPES buffer and 5 mM magnesium chloride in RPMI 1640 media) for thirty minutes at room temperature. To measure binding, 50 μl of binding buffer, with or without a known concentration of compound, is combined with 50 μl of ^125-I labeled human MIP-1α (to give a final concentration of 50 pM radioligand) and 50 μl of binding buffer containing 5×10^5 cells. Cells used for such binding assays can include the THP-1 cell line, which expresses the endogenous CCR1 receptor, or human peripheral blood mononuclear cells, isolated by Ficoll-Hypaque gradient centrifugation, or human monocytes (Weiner et al., J. Immunol. Methods, 36:89 (1980)). The mixture of compound, cells and radioligand is incubated at room temperature for thirty minutes. Plates are placed onto a vacuum manifold, vacuum applied, and the plates washed three times with binding buffer containing 0.5M NaCl. The plastic skirt is removed from the plate, the plate allowed to air dry, the wells punched out and counted. […]

Ki | SMILES
930 nM | CCC(NC(=O)C1CCCC1)C(O)C1CCN(c2ccc(Cl)cc2)CC1 (single isomer, unassigned) [Example 1, N-(1-(1-(4-Chlorophenyl)piperidin-4-yl)-1-hydroxybutan-2-yl)cyclopentanecarboxamide]
354 nM | CCC(NC(=O)C1CCCC1)C(O)C1CCN(c2ccc(Cl)cc2)CC1 (single isomer, unassigned) [Example 2, N-(1-(1-(4-Chlorophenyl)piperidin-4-yl)-1-hydroxybutan-2-yl)cyclopentanecarboxamide]
